Laboratory results as given in the supplement of paper PMC10307832.

What was measured:
Experiment in all cases: relative viability (nuclei count vs DMSO), 5 days (fraction); higher = more cells survive
Tipifarnib + Luminespib = compound: Cn1cncc1[C@@](N)(c1ccc(Cl)cc1)c1ccc2c(c1)c(-c1cccc(Cl)c1)cc(=O)n2C [Tipifarnib] + CCNC(=O)c1noc(-c2cc(C(C)C)c(O)cc2O)c1-c1ccc(CN2CCOCC2)cc1 [Luminespib] (partner 0.01 µM)
Summary of the method: (§1)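 Each reported value is a median over duplicate plates. It expresses relative viability: treated-well nuclei count divided by vehicle-well nuclei count. Lung cancer cell lines in 1536-well plates were dosed by pin tool a day after seeding, alone with one drug or with a fixed anchor-drug dose plus five library-drug doses (not always all listed) in √10 steps, and nuclei were counted after 5 days.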

Tipifarnib + Bortezomib = compound: Cn1cncc1[C@@](N)(c1ccc(Cl)cc1)c1ccc2c(c1)c(-c1cccc(Cl)c1)cc(=O)n2C [Tipifarnib] + CC(C)C[C@H](NC(=O)[C@H](Cc1ccccc1)NC(=O)c1cnccn1)B(O)O [Bortezomib] (partner 0.002 µM)
Summary of the method: as §1

Tipifarnib + Dasatinib = compound: Cn1cncc1[C@@](N)(c1ccc(Cl)cc1)c1ccc2c(c1)c(-c1cccc(Cl)c1)cc(=O)n2C [Tipifarnib] + Cc1nc(Nc2ncc(C(=O)Nc3c(C)cccc3Cl)s2)cc(N2CCN(CCO)CC2)n1 [Dasatinib] (partner 0.075 µM)
Summary of the method: as §1

Tipifarnib + Palbociclib = compound: Cn1cncc1[C@@](N)(c1ccc(Cl)cc1)c1ccc2c(c1)c(-c1cccc(Cl)c1)cc(=O)n2C [Tipifarnib] + CC(=O)c1c(C)c2cnc(Nc3ccc(N4CCNCC4)cn3)nc2n(C2CCCC2)c1=O [Palbociclib] (partner 0.5 µM)
Summary of the method: as §1

Cell Line | relative viability (Tipifarnib + Luminespib; first compound 0.01 µM) | relative viability (Tipifarnib + Luminespib; first compound 0.03162 µM) | relative viability (Tipifarnib + Luminespib; first compound 0.1 µM) | relative viability (Tipifarnib + Luminespib; first compound 0.3162 µM) | relative viability (Tipifarnib + Luminespib; first compound 1 µM) | relative viability (Tipifarnib + Bortezomib; first compound 0.01 µM) | relative viability (Tipifarnib + Bortezomib; first compound 0.03162 µM) | relative viability (Tipifarnib + Bortezomib; first compound 0.1 µM) | relative viability (Tipifarnib + Bortezomib; first compound 0.3162 µM) | relative viability (Tipifarnib + Bortezomib; first compound 1 µM) | relative viability (Tipifarnib + Dasatinib; first compound 0.01 µM) | relative viability (Tipifarnib + Dasatinib; first compound 0.03162 µM) | relative viability (Tipifarnib + Dasatinib; first compound 0.1 µM) | relative viability (Tipifarnib + Dasatinib; first compound 0.3162 µM) | relative viability (Tipifarnib + Dasatinib; first compound 1 µM) | relative viability (Tipifarnib + Palbociclib; first compound 0.01 µM) | relative viability (Tipifarnib + Palbociclib; first compound 0.03162 µM) | relative viability (Tipifarnib + Palbociclib; first compound 0.1 µM) | relative viability (Tipifarnib + Palbociclib; first compound 0.3162 µM) | relative viability (Tipifarnib + Palbociclib; first compound 1 µM)
HOP-62 | 0.653 | 0.611 | 0.401 | 0.374 | 0.349 | 1 | 0.188 | 0.222 | 0.275 | 0.281 | 0.683 | 0.392 | 0.37 | 0.277 | 0.338 | 0.425 | 0.33 | 0.268 | 0.188 | 0.191
NCI-H1915 | 0.681 | 0.638 | 0.48 | 0.44 | 0.428 | 0.844 | 0.466 | 0.54 | 0.418 | 0.286 | 0.241 | 0.182 | 0.201 | 0.175 | 0.16 | 0.317 | 0.318 | 0.281 | 0.218 | 0.241
NCI-H3122 | 0.0874 | 0.0613 | 0.0958 | 0.0893 | 0.0812 | 0.967 | 0.976 | 0.986 | 0.833 | 0.832 | 0.63 | 0.456 | 0.644 | 0.327 | 0.138 | 0.193 | 0.189 | 0.196 | 0.179 | 0.14
NCI-H1651 | 0.921 | 0.934 | 0.797 | 0.684 | 0.753 | 0.94 | 0.916 | 1.04 | 0.842 | 0.78 | 0.474 | 0.209 | 0.389 | 0.363 | 0.196 | 0.502 | 0.52 | 0.544 | 0.502 | 0.511
NCI-H838 | 0.41 | 0.266 | 0.212 | 0.21 | 0.211 | 0.713 | 0.733 | 0.589 | 0.439 | 0.41 | 0.322 | 0.296 | 0.233 | 0.263 | 0.237 | 0.223 | 0.206 | 0.214 | 0.187 | 0.195
SK-LU-1 | 0.252 | 0.212 | 0.208 | 0.236 | 0.193 | 1.12 | 0.508 | 0.626 | 0.614 | 0.36 | 0.16 | 0.152 | 0.156 | 0.14 | 0.133 | 0.398 | 0.353 | 0.393 | 0.357 | 0.335
NCI-H441 | 0.39 | 0.355 | 0.242 | 0.315 | 0.267 | 0.685 | 0.2 | 0.432 | 0.207 | 0.185 | 0.592 | 0.516 | 0.484 | 0.396 | 0.277 | 0.197 | 0.161 | 0.188 | 0.144 | 0.164
NCI-H650 | 0.888 | 0.697 | 0.61 | 0.57 | 0.442 | 0.781 | 0.36 | 0.697 | 0.539 | 0.346 | 0.421 | 0.375 | 0.366 | 0.284 | 0.266 | 0.368 | 0.321 | 0.379 | 0.269 | 0.233
